Data as given in US10899795B2, “Modified epitopes for boosting CD4+ T-cell responses” (Katholieke Universiteit Leuven, priority 2012, dated 2021).

Test system: hemagglutinin-loaded dendritic cells
Format: cell-based, C57BL/6 mice

CLAI YSTVASSLV LLV [SEQ ID NO:9]
lysis of hemagglutinin-loaded dendritic cells (51Cr release): significant lysis
